From ChEMBL document CHEMBL1201862, “PubChem BioAssay data set” (2004)
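Method: 48-hour compound exposure of cells in 96-well plates, five concentrations, linear interpolation of endpoints. GI50: concentration for 50% inhibition of growth.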 Active and inactive are the calls of the source. Rule as the data show it: active = GI50 up to about 1.1 µM and inactive = higher.

Tests used:
Experiment in all cases: growth of human tumour cells (NCI), 48 h
A498 = test system: A498
A549 = test system: A549
CAKI-1 = test system: CAKI-1
HCT-116 = test system: HCT-116
HCT-15 = test system: HCT-15
HT-29 = test system: HT-29
KM12 = test system: KM12
LOX IMVI = test system: LOX IMVI
MDA-MB-231 = test system: MDA-MB-231
NCI-H23 = test system: NCI-H23
OVCAR-4 = test system: OVCAR-4
OVCAR-8 = test system: OVCAR-8
SF-295 = test system: SF-295
U-251 = test system: U-251
UACC-62 = test system: UACC-62
IGROV-1 = test system: IGROV-1
K562 = test system: K562
SK-MEL-28 = test system: SK-MEL-28
SNB-75 = test system: SNB-75

SMILES | GI50 (A498) | GI50 (A549) | GI50 (CAKI-1) | GI50 (HCT-116) | GI50 (HCT-15) | GI50 (HT-29) | GI50 (KM12) | GI50 (LOX IMVI) | GI50 (MDA-MB-231) | GI50 (NCI-H23) | GI50 (OVCAR-4) | GI50 (OVCAR-8) | GI50 (SF-295) | GI50 (U-251) | GI50 (UACC-62) | GI50 (IGROV-1) | GI50 (K562) | GI50 (SK-MEL-28) | GI50 (SNB-75)
CCNC(=S)NNC(=O)c1csc(NC(=S)NC2CCCCC2)n1 | 23 µM (inactive) | 16.9 µM (inactive) | 6.71 µM (inactive) | 5.26 µM (inactive) | 1.67 µM | > 100 µM (inactive) | 11.1 µM (inactive) | 5.83 µM (inactive) | 6.53 µM (inactive) | 22.8 µM (inactive) | 7.91 µM (inactive) | 10 µM (inactive) | 10.2 µM (inactive) | 9.95 µM (inactive) | 6.18 µM (inactive) |  |  |  | 
Cc1cc(=O)oc2cc(OC(=O)N(C)C)c(Cl)cc12 | > 100 µM (inactive) | > 100 µM (inactive) | > 100 µM (inactive) | > 100 µM (inactive) | > 100 µM | > 100 µM (inactive) | > 100 µM (inactive) | 85.5 µM (inactive) | > 100 µM (inactive) | > 100 µM (inactive) | > 100 µM (inactive) | > 100 µM (inactive) | > 10 µM (inactive) | 53 µM (inactive) | 21.6 µM (inactive) | > 100 µM (inactive) | > 100 µM (inactive) | > 100 µM (inactive) | 
CN1C(=O)C(O)CC1c1ccccc1C(F)(F)F (centres undefined) | > 100 µM (inactive) | > 100 µM (inactive) | > 100 µM (inactive) | > 100 µM (inactive) | > 100 µM | > 100 µM (inactive) | > 100 µM (inactive) | > 100 µM (inactive) | > 100 µM (inactive) | > 100 µM (inactive) | > 100 µM (inactive) | > 100 µM (inactive) | > 100 µM (inactive) | > 100 µM (inactive) | > 100 µM (inactive) | > 100 µM (inactive) |  | > 100 µM (inactive) | > 100 µM (inactive)
CCN(CC)C(=S)SC(C(=O)Nc1nnc(-c2ccc(Cl)cc2)o1)c1ccccc1 (centres undefined) | 11.9 µM (inactive) | 17.9 µM (inactive) | 11.7 µM (inactive) | 3.46 µM (inactive) | 3.81 µM | 4.86 µM (inactive) | 17.9 µM (inactive) | 15.3 µM (inactive) | 26 µM (inactive) | 22.1 µM (inactive) | 3.08 µM (inactive) | 5.79 µM (inactive) | 12.8 µM (inactive) | 10 µM (inactive) | 7.35 µM (inactive) | 2.7 µM (inactive) | 12.8 µM (inactive) | 14 µM (inactive) | 
CC(=O)O[C@H]1C[C@](C)(O)[C@@]23CC([C@@H](OC(=O)C(C)(C)O)[C@@H](OC(C)=O)C2(COC(=O)c2ccccc2)[C@H]1OC(C)=O)C(C)(C)O3 (some centres undefined) | > 100 µM (inactive) | 47.8 µM (inactive) | > 100 µM (inactive) | > 100 µM (inactive) | > 100 µM | > 100 µM (inactive) | 78.5 µM (inactive) | 61.5 µM (inactive) | 16.8 µM (inactive) | > 100 µM (inactive) | > 100 µM (inactive) | > 100 µM (inactive) | 84.3 µM (inactive) | 33.4 µM (inactive) | > 100 µM (inactive) | > 100 µM (inactive) | 50 µM (inactive) | > 100 µM (inactive) | 
N#Cc1c(-c2ccccc2)c(C#N)c(=S)n(C2OC(CO)C(O)C(O)C2O)c1O (centres undefined) | > 100 µM (inactive) | > 100 µM (inactive) | > 100 µM (inactive) |  | > 100 µM | > 100 µM (inactive) | > 100 µM (inactive) | > 100 µM (inactive) | > 100 µM (inactive) | > 100 µM (inactive) |  | > 100 µM (inactive) | > 100 µM (inactive) |  | > 100 µM (inactive) | > 100 µM (inactive) | > 100 µM (inactive) | > 100 µM (inactive) | > 100 µM (inactive)
N#C/N=C(/NCc1ccccc1)N(Cc1ccccc1)Cc1ccccc1 | > 10 µM (inactive) | 16.4 µM (inactive) | 28.5 µM (inactive) | 17.8 µM (inactive) | 20.7 µM | > 10 µM (inactive) | 27.6 µM (inactive) | 19.2 µM (inactive) | 18.3 µM (inactive) | 19.8 µM (inactive) | 23.8 µM (inactive) | 20.2 µM (inactive) | 15.3 µM (inactive) | 24.7 µM (inactive) | 8.13 µM (inactive) | 17.4 µM (inactive) | 26.3 µM (inactive) | 27.5 µM (inactive) | 
CCOC(=O)C1(C/C=C\CBr)CCCC1=O (centres undefined) | > 100 µM (inactive) | 30.6 µM (inactive) | 48.8 µM (inactive) | 19.5 µM (inactive) | 26.9 µM | 29.3 µM (inactive) | 32.1 µM (inactive) | 15.7 µM (inactive) | 25.6 µM (inactive) | 23.8 µM (inactive) | 34.4 µM (inactive) | 30.1 µM (inactive) | 60 µM (inactive) | 20.1 µM (inactive) | 15.7 µM (inactive) | 24.9 µM (inactive) |  | 47.3 µM (inactive) | 27 µM (inactive)
CCOC(=O)c1nc2ccc(C(F)(F)F)cc2nc1Nc1ccc(Cl)c(Cl)c1 | > 100 µM (inactive) | 67.8 µM (inactive) | 57.1 µM (inactive) | 64.7 µM (inactive) | 94.4 µM | > 100 µM (inactive) | 75.9 µM (inactive) | > 100 µM (inactive) | 60 µM (inactive) | > 100 µM (inactive) |  | 74.5 µM (inactive) | 30.3 µM (inactive) |  | > 100 µM (inactive) | > 100 µM (inactive) | 39.4 µM (inactive) | > 100 µM (inactive) | 48.8 µM (inactive)
CC(=O)Oc1c2ccsc2c(OC(C)=O)c2ccsc12 | 1.77 µM (inactive) | 0.224 µM (active) | 2.11 µM (inactive) | 0.764 µM (active) | 0.573 µM | 2.12 µM (inactive) | 1.67 µM (inactive) | 0.184 µM (active) | 1.29 µM (inactive) | 0.269 µM (active) | 0.67 µM (active) | 0.337 µM (active) | 1.07 µM (active) | 0.869 µM (active) | 1.59 µM (inactive) | 1.79 µM (inactive) |  | 0.329 µM (active) | 0.286 µM (active)
Clc1cccc(/N=C/C=C/Nc2cccc(Cl)c2)c1 | 22.9 µM (inactive) | 28.5 µM (inactive) | 26.1 µM (inactive) | 15 µM (inactive) | 17.8 µM | 16.7 µM (inactive) | 14.1 µM (inactive) | 6.32 µM (inactive) | 15.7 µM (inactive) | 21.3 µM (inactive) | 40.4 µM (inactive) | 18 µM (inactive) | 12.1 µM (inactive) | 16.5 µM (inactive) |  | 16 µM (inactive) |  | 16.1 µM (inactive) | > 10 µM (inactive)
CC(=O)NC1C(OCc2ccccc2)OC(CO)C(O)C1OC(C)C(=O)NC(C(=O)NC(CCC(=O)NCCCNc1ccc([N+](=O)[O-])c2[nH]c3ccccc3c(=O)c12)C(N)=O)C(C)C (centres undefined) | > 100 µM (inactive) | > 100 µM (inactive) | > 100 µM (inactive) | > 100 µM (inactive) | > 100 µM | > 100 µM (inactive) | > 100 µM (inactive) | > 100 µM (inactive) | 40.6 µM (inactive) | > 100 µM (inactive) | > 100 µM (inactive) | > 100 µM (inactive) | > 100 µM (inactive) | > 100 µM (inactive) | > 100 µM (inactive) | > 100 µM (inactive) |  | > 100 µM (inactive) | > 100 µM (inactive)
